The values that follow are results of earlier work, collected in patent US6232438A, “Angiotensin converting enzyme inhibitors” (Nong Shim Co., Ltd., priority 1996, dated 2001).

The data set deals with ACE (Homo sapiens, UniProt P12821). To be noted: peptide from enzymatic hydrolysate of milk casein.
ACE, sequence (P12821 30-1306, species assumed): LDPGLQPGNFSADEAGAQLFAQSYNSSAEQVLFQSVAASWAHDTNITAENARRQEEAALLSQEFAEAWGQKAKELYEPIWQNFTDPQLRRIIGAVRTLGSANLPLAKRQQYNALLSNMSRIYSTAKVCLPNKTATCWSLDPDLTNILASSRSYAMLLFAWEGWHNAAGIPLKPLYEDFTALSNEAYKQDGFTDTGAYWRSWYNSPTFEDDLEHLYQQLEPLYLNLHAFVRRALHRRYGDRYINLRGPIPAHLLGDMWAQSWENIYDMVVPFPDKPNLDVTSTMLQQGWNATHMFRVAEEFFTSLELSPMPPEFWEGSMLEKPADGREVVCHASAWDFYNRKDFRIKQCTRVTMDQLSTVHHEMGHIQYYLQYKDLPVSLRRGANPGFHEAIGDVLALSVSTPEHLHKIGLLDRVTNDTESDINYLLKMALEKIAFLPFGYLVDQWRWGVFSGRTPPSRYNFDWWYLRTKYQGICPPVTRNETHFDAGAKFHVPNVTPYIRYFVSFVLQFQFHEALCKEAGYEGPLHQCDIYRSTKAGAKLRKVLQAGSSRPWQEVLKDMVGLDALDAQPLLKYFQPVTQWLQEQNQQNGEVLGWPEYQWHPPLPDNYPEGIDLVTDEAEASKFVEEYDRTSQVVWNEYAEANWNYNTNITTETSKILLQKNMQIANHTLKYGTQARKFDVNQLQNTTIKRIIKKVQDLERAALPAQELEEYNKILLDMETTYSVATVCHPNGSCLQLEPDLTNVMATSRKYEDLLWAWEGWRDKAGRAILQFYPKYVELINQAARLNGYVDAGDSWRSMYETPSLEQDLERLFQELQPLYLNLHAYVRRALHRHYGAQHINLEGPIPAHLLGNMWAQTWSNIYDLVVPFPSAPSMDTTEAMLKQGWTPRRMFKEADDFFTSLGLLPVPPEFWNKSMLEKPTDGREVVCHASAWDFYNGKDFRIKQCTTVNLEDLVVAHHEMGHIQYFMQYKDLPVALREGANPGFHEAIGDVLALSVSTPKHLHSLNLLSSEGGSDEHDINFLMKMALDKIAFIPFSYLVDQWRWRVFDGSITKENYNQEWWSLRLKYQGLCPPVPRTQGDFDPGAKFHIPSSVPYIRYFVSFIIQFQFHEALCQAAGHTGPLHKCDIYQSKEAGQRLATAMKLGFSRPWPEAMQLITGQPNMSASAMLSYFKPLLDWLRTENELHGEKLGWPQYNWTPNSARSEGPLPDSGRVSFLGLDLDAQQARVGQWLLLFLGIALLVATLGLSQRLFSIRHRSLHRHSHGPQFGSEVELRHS

As for “phenylalanine-phenylalanine-valine-alanine-proline”, the 50% inhibitory concentration (IC50) is 6 µM.
